The results in this text go back to patent publication US20050197338A1, “Substituted pyrazole urea compounds for the treatment of inflammation” (priority 2003, published 2005).

The assay addresses T1, human IKK-2 (rhIKK-2 homodimer) (Homo sapiens, UniProt O14920).
T1 construct: FLAG (DYKDDDDKD) (C); made in house; host or cells: insect cells (baculovirus, pFastBac)
T1 sequence (O14920 1-756): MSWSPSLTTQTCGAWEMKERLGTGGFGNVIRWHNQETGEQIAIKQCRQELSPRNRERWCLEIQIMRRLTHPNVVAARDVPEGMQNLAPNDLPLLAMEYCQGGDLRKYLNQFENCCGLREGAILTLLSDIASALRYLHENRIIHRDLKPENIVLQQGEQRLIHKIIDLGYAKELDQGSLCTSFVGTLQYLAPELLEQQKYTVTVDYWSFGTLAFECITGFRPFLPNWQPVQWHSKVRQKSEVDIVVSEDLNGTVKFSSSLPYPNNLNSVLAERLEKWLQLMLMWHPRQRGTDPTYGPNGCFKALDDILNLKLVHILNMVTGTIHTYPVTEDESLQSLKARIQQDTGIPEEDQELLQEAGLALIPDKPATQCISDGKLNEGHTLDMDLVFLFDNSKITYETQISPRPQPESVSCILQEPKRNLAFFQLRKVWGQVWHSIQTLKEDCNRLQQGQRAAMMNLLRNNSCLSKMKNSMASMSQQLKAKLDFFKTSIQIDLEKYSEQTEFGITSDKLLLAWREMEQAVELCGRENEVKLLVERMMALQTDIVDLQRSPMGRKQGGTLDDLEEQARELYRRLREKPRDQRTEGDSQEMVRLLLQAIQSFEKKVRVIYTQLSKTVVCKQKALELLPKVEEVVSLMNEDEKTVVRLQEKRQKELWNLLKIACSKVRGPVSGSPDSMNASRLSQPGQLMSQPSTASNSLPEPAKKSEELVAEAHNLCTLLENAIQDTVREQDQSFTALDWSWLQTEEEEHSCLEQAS
As to the kind of experiment: IKK-2 Resin Enzyme Assay (Human IKK-2 Enzyme Assay). Type of assay: biochemical. The following applies: human IKK-2, resin enzyme assay; read-out: IC50 (μM) hIKK-2. The procedure, abridged: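 C-terminally FLAG-tagged human IKK-2 homodimer, baculovirus-expressed in insect cells and anti-FLAG purified. Reaction mix: 5 μM biotinylated IκBα peptide (Ser32/Ser36 region), 1 μM ATP with [γ-33P]ATP, 2 mM MgCl2, 2 mM MnCl2, 10 mM NaF, 1 mM DTT, 25 mM HEPES pH 7.6. Incubated 30 min at 25 °C; IC50 derived.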

What is called IC50 is the concentration at which inhibition is half-maximal. As for `NC(=O)COc1cccc(-c2ccc(-n3cc(NC(N)=O)c(C(N)=O)n3)cc2)c1` [Example 175, 4-[(aminocarbonyl)amino]-1-[3′-(2-amino-2-oxoethoxy)-1,1′-biphenyl-4-yl]-1H-pyrazole-3-carboxamide], the IC50 is 0.18 µM.

As for `N#CCOc1cc(F)ccc1-c1ccc(-n2cc(NC(N)=O)c(C(N)=O)n2)cc1` [Example 173, 4-[(aminocarbonyl)amino]-1-[2′-(cyanomethoxy)-4′-fluoro-1,1′-biphenyl-4-yl]-1H-pyrazole-3-carboxamide], the IC50 came to 0.15 µM.

`NC(=O)Nc1cn(-c2ccc(-c3cccc(O)c3)cc2F)nc1C(N)=O` [Example 247, 4-[(aminocarbonyl)amino]-1-(3-fluoro-3′-hydroxy-1,1′-biphenyl-4-yl)-1H-pyrazole-3-carboxamide]: the IC50 was found to be 0.457 µM.
